Test results reported in ChEMBL document CHEMBL5550184, “Structure-activity relationships of middle-size cyclic peptides, KRAS inhibitors derived from an mRNA display” (Bioorg Med Chem, 2024).
Starred links: 1 amine or outer side, 2 acyl side, 3 side chain; linkers in the order of their positions; H or OH if unused. Positions of bridges follow the written chain, without caps; N, C: chain ends. Non-standard residues stand in square brackets, D forms with d. Residues, ends and D or L forms follow the SMILES beside them. *: point of attachment. hPhe(3-Cl-4-CF3) = N[C@@H](CCc1ccc(C(F)(F)F)c(Cl)c1)C(=O)O; X2 = CN([C@@H](CC(=O)[*:2])C(=O)n1cccc1)[*:1]; NMePhe(4-Cl) = CN[C@@H](Cc1ccc(Cl)cc1)C(=O)O; Phe(3-Cl) = N[C@@H](Cc1cccc(Cl)c1)C(=O)O; NMeGly(cPent) = CN[C@H](C(=O)O)C1CCCC1; NMeAla(cPr) = CN[C@@H](CC1CC1)C(=O)O; NMeGly(cBu) = CN[C@H](C(=O)O)C1CCC1; NMeCha = CN[C@@H](CC1CCCCC1)C(=O)O; NMeGly(cPr) = CN[C@H](C(=O)O)C1CC1; NEtLeu = CCN[C@@H](CC(C)C)C(=O)O; NMeChg = CN[C@H](C(=O)O)C1CCCCC1; NMeF = CN[C@@H](Cc1ccccc1)C(=O)O; NMeT = CN[C@H](C(=O)O)[C@@H](C)O; NMeD = CN[C@@H](CC(=O)O)C(=O)O; NMeL = CN[C@@H](CC(C)C)C(=O)O; NMehSer = CN[C@@H](CCO)C(=O)O; NMeNva = CCC[C@H](NC)C(=O)O; NMeV = CN[C@H](C(=O)O)C(C)C; Azetidin(1-yl) = C1CN(*)C1; NMeA = CN[C@@H](C)C(=O)O; Piperidide = C1CCN(*)CC1; Ac5c = NC1(C(=O)O)CCCC1; Aze = O=C(O)[C@@H]1CCN1; Sar = CNCC(=O)O

Key:
[1] = test system: GTPase KRas (Homo sapiens), P01116 [G12D]; test: Binding affinity to biotinylated KRAS G12D mutant (unknown origin) assessed as Kon incubated for 120 mins by SPR analysis
[2] = Inhibition of biotin-tagged KRAS G12D mutant (unknown origin) to recombinant His-tagged SOS1 (unknown origin) protein-protein interaction incubated for 120 mins by AlphaLISA method; set-up: species or system Homo sapiens
[3] = Apparent permeability in human Caco-2 cells incubated for 180 mins by LC-MS/MS method; format: ADME, cell-based
[4] = test system: GTPase KRas (Homo sapiens), P01116 [G12D]; test: Binding affinity to biotinylated KRAS G12D mutant (unknown origin) assessed as Koff incubated for 120 mins by SPR analysis
GTPase KRas = GTPase KRas (Homo sapiens, UniProt P01116, G12D); test: Binding affinity to biotinylated KRAS G12D mutant (unknown origin) incubated for 120 mins by SPR analysis
ASPC1 = test: Cytotoxicity against human AsPC1 cells assessed as reduction in cell viability incubated for 7 days by CellTiterGlo Luminescent Cell Viability Assay; format: functional, cell-based; conditions: ASPC1, 168 h

Chain of GTPase KRas (Homo sapiens), P01116 [G12D] (P01116 whole entry G12D, looked up): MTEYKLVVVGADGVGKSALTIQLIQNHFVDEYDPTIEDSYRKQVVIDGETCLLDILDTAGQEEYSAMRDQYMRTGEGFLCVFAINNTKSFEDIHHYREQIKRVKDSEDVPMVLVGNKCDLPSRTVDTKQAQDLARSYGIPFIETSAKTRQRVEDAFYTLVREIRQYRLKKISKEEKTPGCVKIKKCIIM
Chain of GTPase KRas (P01116 whole entry G12D): as the sequence (P01116 whole entry G12D, looked up) above

Row | SMILES | K [1] | IC50 [2] [nM] | Papp at 3 h [3] [×10⁻⁶ cm/s] | K [4] | Kd (GTPase KRas) [nM] | IC50 (ASPC1) [nM]
1 | CC[C@H](C)[C@@H]1NC(=O)[C@H](CCO)N(C)C(=O)C[C@@H](C(=O)N2CCCCC2)N(C)C(=O)[C@H](C2CCCCC2)N(C)C(=O)C2(CCCC2)NC(=O)[C@@H]2CCCN2C(=O)[C@H](CCc2ccc(C(F)(F)F)c(Cl)c2)NC(=O)CN(C)C(=O)[C@H](CC2CCCCC2)N(C)C(=O)CN(C)C(=O)CN(C)C1=O ([NMehSer]I[Sar][Sar][NMeCha][Sar][hPhe(3-Cl-4-CF3)]P[Ac5c][NMeChg][NMeD]-Piperidide; lactam N-11) | 1.2 10^6/Ms | < 2 | 0.39 | 2.2 10^-4/s | 0.17 | 63
2 | CCC[C@H]1C(=O)N[C@@H]([C@@H](C)CC)C(=O)N(C)CC(=O)N(C)CC(=O)N(C)[C@@H](CC2CCCCC2)C(=O)N(C)CC(=O)N[C@@H](CCc2ccc(C(F)(F)F)c(Cl)c2)C(=O)N2CCC[C@H]2C(=O)NC2(CCCC2)C(=O)N(C)[C@@H](C2CCCCC2)C(=O)N(C)[C@H](C(=O)N2CCCCC2)CC(=O)N1C ([NMeNva]I[Sar][Sar][NMeCha][Sar][hPhe(3-Cl-4-CF3)]P[Ac5c][NMeChg][NMeD]-Piperidide; lactam N-11) | 3.1 10^5/Ms | < 2 | 0.85 | 2.3 10^-4/s | 0.75 | 49
3 | CC[C@H](C)[C@@H]1NC(=O)[C@H](CC2CCCCC2)N(C)C(=O)C[C@@H](C(=O)N2CCCCC2)N(C)C(=O)[C@H](C2CCCCC2)N(C)C(=O)C2(CCCC2)NC(=O)[C@@H]2CCCN2C(=O)[C@H](CCc2ccc(C(F)(F)F)c(Cl)c2)NC(=O)CN(C)C(=O)[C@H](CC2CCCCC2)N(C)C(=O)CN(C)C(=O)CN(C)C1=O ([NMeCha]I[Sar][Sar][NMeCha][Sar][hPhe(3-Cl-4-CF3)]P[Ac5c][NMeChg][NMeD]-Piperidide; lactam N-11) | 1 10^5/Ms | < 2 | 0.2 | 2.6 10^-4/s | 2.5 | 210
4 | CC[C@H](C)[C@@H]1NC(=O)[C@H]([C@@H](C)O)N(C)C(=O)C[C@@H](C(=O)N2CCCCC2)N(C)C(=O)[C@H](C2CCCCC2)N(C)C(=O)C2(CCCC2)NC(=O)[C@@H]2CCCN2C(=O)[C@H](CCc2ccc(C(F)(F)F)c(Cl)c2)NC(=O)CN(C)C(=O)[C@H](CC2CCCCC2)N(C)C(=O)CN(C)C(=O)CN(C)C1=O ([NMeT]I[Sar][Sar][NMeCha][Sar][hPhe(3-Cl-4-CF3)]P[Ac5c][NMeChg][NMeD]-Piperidide; lactam N-11) | 1.2 10^6/Ms | < 2 | 0.15 | 2.7 10^-4/s | 0.23 | 220
5 | CC[C@H](C)[C@@H]1NC(=O)[C@H](CCOC)N(C)C(=O)C[C@@H](C(=O)N2CCCCC2)N(C)C(=O)[C@H](C2CCCCC2)N(C)C(=O)C2(CCCC2)NC(=O)[C@@H]2CCCN2C(=O)[C@H](CCc2ccc(C(F)(F)F)c(Cl)c2)NC(=O)CN(C)C(=O)[C@H](CC2CCCCC2)N(C)C(=O)CN(C)C(=O)CN(C)C1=O ([NMehSer](Me)I[Sar][Sar][NMeCha][Sar][hPhe(3-Cl-4-CF3)]P[Ac5c][NMeChg][NMeD]-Piperidide; lactam N-11) | 1.1 10^6/Ms | < 2 | 0.37 | 2.8 10^-4/s | 0.26 | 74
6 | CC[C@H](C)[C@@H]1NC(=O)[C@H](C)N(C)C(=O)C[C@@H](C(=O)n2cccc2)N(C)C(=O)[C@H](CC(C)C)N(C)C(=O)[C@H](Cc2ccccc2)N(C)C(=O)[C@H](Cc2ccccc2)NC(=O)[C@H](Cc2cccc(Cl)c2)NC(=O)CN(C)C(=O)[C@H](Cc2ccc(Cl)cc2)N(C)C(=O)CN(C)C(=O)CN(C)C1=O (cyclo(F[NMeF][NMeL][X2][NMeA]I[Sar][Sar][NMePhe(4-Cl)][Sar][Phe(3-Cl)])) |  | 36 | 0.87 |  |  | > 20000
7 | CC[C@H](C)[C@@H]1NC(=O)[C@H](CC2CCCCC2)N(C)C(=O)C[C@@H](C(=O)N2CCCCC2)N(C)C(=O)[C@H](C(C)C)N(C)C(=O)C2(CCCC2)NC(=O)[C@@H]2CCCN2C(=O)[C@H](CCc2ccc(C(F)(F)F)c(Cl)c2)NC(=O)CN(C)C(=O)[C@H](CC2CCCCC2)N(C)C(=O)CN(C)C(=O)CN(C)C1=O ([NMeCha]I[Sar][Sar][NMeCha][Sar][hPhe(3-Cl-4-CF3)]P[Ac5c][NMeV][NMeD]-Piperidide; lactam N-11) |  | 25 | 0.33 |  |  | 950
8 | CC[C@H](C)[C@@H]1NC(=O)[C@H](CC2CC2)N(C)C(=O)C[C@@H](C(=O)N2CCCCC2)N(C)C(=O)[C@H](C(C)C)N(C)C(=O)C2(CCCC2)NC(=O)[C@@H]2CCCN2C(=O)[C@H](CCc2ccc(C(F)(F)F)c(Cl)c2)NC(=O)CN(C)C(=O)[C@H](CC2CCCCC2)N(C)C(=O)CN(C)C(=O)CN(C)C1=O ([NMeAla(cPr)]I[Sar][Sar][NMeCha][Sar][hPhe(3-Cl-4-CF3)]P[Ac5c][NMeV][NMeD]-Piperidide; lactam N-11) |  | 10 | 0.34 |  |  | 650
9 | CC[C@H](C)[C@@H]1NC(=O)[C@H](C2CCC2)N(C)C(=O)C[C@@H](C(=O)N2CCCCC2)N(C)C(=O)[C@H](C(C)C)N(C)C(=O)C2(CCCC2)NC(=O)[C@@H]2CCCN2C(=O)[C@H](CCc2ccc(C(F)(F)F)c(Cl)c2)NC(=O)CN(C)C(=O)[C@H](CC2CCCCC2)N(C)C(=O)CN(C)C(=O)CN(C)C1=O ([NMeGly(cBu)]I[Sar][Sar][NMeCha][Sar][hPhe(3-Cl-4-CF3)]P[Ac5c][NMeV][NMeD]-Piperidide; lactam N-11) |  | 2.8 | 0.91 |  |  | 130
10 | CC[C@H](C)[C@@H]1NC(=O)[C@H](C2CCCCC2)N(C)C(=O)C[C@@H](C(=O)N2CCCCC2)N(C)C(=O)[C@H](C(C)C)N(C)C(=O)C2(CCCC2)NC(=O)[C@@H]2CCCN2C(=O)[C@H](CCc2ccc(C(F)(F)F)c(Cl)c2)NC(=O)CN(C)C(=O)[C@H](CC2CCCCC2)N(C)C(=O)CN(C)C(=O)CN(C)C1=O ([NMeChg]I[Sar][Sar][NMeCha][Sar][hPhe(3-Cl-4-CF3)]P[Ac5c][NMeV][NMeD]-Piperidide; lactam N-11) |  | 7.8 | 0.37 |  |  | 650

Now from value to compound, other results behind:

Row | K [1] | IC50 [2] [nM] | Papp at 3 h [3] [×10⁻⁶ cm/s] | K [4] | Kd (GTPase KRas) [nM] | SMILES | IC50 (ASPC1) [nM]
11 | 2.1 10^5/Ms | < 2 | 0.29 | 2.3 10^-4/s | 1.1 | CC[C@H](C)[C@@H]1NC(=O)[C@H](CC(C)C)N(CC)C(=O)C[C@@H](C(=O)N2CCCCC2)N(C)C(=O)[C@H](C2CCCCC2)N(C)C(=O)C2(CCCC2)NC(=O)[C@@H]2CCCN2C(=O)[C@H](CCc2ccc(C(F)(F)F)c(Cl)c2)NC(=O)CN(C)C(=O)[C@H](CC2CCCCC2)N(C)C(=O)CN(C)C(=O)CN(C)C1=O ([NEtLeu]I[Sar][Sar][NMeCha][Sar][hPhe(3-Cl-4-CF3)]P[Ac5c][NMeChg][NMeD]-Piperidide; lactam N-11) | 73
12 |  | < 2 | 2.66 |  | 0.19 | CC[C@H](C)[C@@H]1NC(=O)[C@H](CC(C)C)N(C)C(=O)C[C@@H](C(=O)N2CCC2)N(C)C(=O)[C@H](C2CCCC2)N(C)C(=O)C2(CCCC2)NC(=O)[C@@H]2CCCN2C(=O)[C@H](CCc2ccc(C(F)(F)F)c(Cl)c2)NC(=O)CN(C)C(=O)[C@H](CC2CCCCC2)N(C)C(=O)[C@@H]2CCN2C(=O)[C@H](C)N(C)C1=O ([NMeL]I[NMeA][Aze][NMeCha][Sar][hPhe(3-Cl-4-CF3)]P[Ac5c][NMeGly(cPent)][NMeD]-{Azetidin(1-yl)}; lactam N-11) | 13
13 |  | < 2 | 2.61 |  | 0.16 | CC[C@H](C)[C@@H]1NC(=O)[C@H](CC(C)C)N(C)C(=O)C[C@@H](C(=O)N(C)C)N(C)C(=O)[C@H](C2CCCC2)N(C)C(=O)C2(CCCC2)NC(=O)[C@@H]2CCCN2C(=O)[C@H](CCc2ccc(C(F)(F)F)c(Cl)c2)NC(=O)CN(C)C(=O)[C@H](CC2CCCCC2)N(C)C(=O)[C@@H]2CCN2C(=O)[C@H](C)N(C)C1=O ([NMeL]I[NMeA][Aze][NMeCha][Sar][hPhe(3-Cl-4-CF3)]P[Ac5c][NMeGly(cPent)][NMeD]-NMe2; lactam N-11) | 5.5
14 |  | > 1000 | 0.97 |  |  | CC[C@H](C)[C@@H]1NC(=O)[C@H](CC(C)C)N(C)C(=O)C[C@@H](C(=O)N2CCCCC2)N(C)C(=O)[C@H](C)N(C)C(=O)C2(CCCC2)NC(=O)[C@@H]2CCCN2C(=O)[C@H](CCc2ccc(C(F)(F)F)c(Cl)c2)NC(=O)CN(C)C(=O)[C@H](CC2CCCCC2)N(C)C(=O)[C@@H]2CCN2C(=O)[C@H](C)N(C)C1=O ([NMeL]I[NMeA][Aze][NMeCha][Sar][hPhe(3-Cl-4-CF3)]P[Ac5c][NMeA][NMeD]-Piperidide; lactam N-11) | 5200
15 |  | < 2 | 0.97 |  |  | CC[C@H](C)[C@@H]1NC(=O)[C@H](CC(C)C)N(C)C(=O)C[C@@H](C(=O)N2CCCCC2)N(C)C(=O)[C@H](C2CCCCC2)N(C)C(=O)C2(CCCC2)NC(=O)[C@@H]2CCCN2C(=O)[C@H](CCc2ccc(C(F)(F)F)c(Cl)c2)NC(=O)CN(C)C(=O)[C@H](CC2CCCCC2)N(C)C(=O)[C@@H]2CCN2C(=O)[C@H](C)N(C)C1=O ([NMeL]I[NMeA][Aze][NMeCha][Sar][hPhe(3-Cl-4-CF3)]P[Ac5c][NMeChg][NMeD]-Piperidide; lactam N-11) | 140
16 |  | 50 | 1.36 |  |  | CC[C@H](C)[C@@H]1NC(=O)[C@H](CC(C)C)N(C)C(=O)C[C@@H](C(=O)N2CCCCC2)N(C)C(=O)[C@H](C2CC2)N(C)C(=O)C2(CCCC2)NC(=O)[C@@H]2CCCN2C(=O)[C@H](CCc2ccc(C(F)(F)F)c(Cl)c2)NC(=O)CN(C)C(=O)[C@H](CC2CCCCC2)N(C)C(=O)[C@@H]2CCN2C(=O)[C@H](C)N(C)C1=O ([NMeL]I[NMeA][Aze][NMeCha][Sar][hPhe(3-Cl-4-CF3)]P[Ac5c][NMeGly(cPr)][NMeD]-Piperidide; lactam N-11) | 1100
